This is an account of results in patent publication US20230121313A1 (priority 2019, published 2023).

In series [1] the test system is elderly subjects with TRD. The experiment in a line: MADRS total score, Study […]3005 (change, response, remission). It is filed as in vivo, human. As for the experimental part:
The primary objective of this study was to evaluate the efficacy of switching elderly subjects with treatment-resistant depression (TRD) from a prior antidepressant treatment (to which they have not responded) to flexibly dosed intranasal esketamine (28 mg, 56 mg or 84 mg) plus a newly initiated oral antidepressant compared with switching to a newly initiated oral antidepressant plus intranasal placebo, in improving depressive symptoms, as assessed by the change from baseline in the Montgomery-Asberg Depression Rating Scale (MADRS) total score from Day 1 (pre-randomization) to the end of the 4-week double-blind induction phase.
Primary Efficacy Evaluation: The primary efficacy evaluation is described in Example 1. Key Secondary Efficacy Evaluation (Clinician-completed): The key secondary efficacy evaluation (clinician-completed) is described in Example 1. Key Secondary Efficacy Evaluation (Patient-reported Outcome): The key secondary efficacy evaluation (patient-reported outcome) is described in Example 1. Primary Endpoint: The primary efficacy endpoint is described in Example 1. Primary Endpoint Results: The primary endpoint results are the same as described in Example 1. See, Table 34 and FIG. 19.
As specified in the SAP, the weighted combination test was the primary analysis for the primary efficacy endpoint since an interim analysis for sample size re-estimation was conducted. A post-hoc analysis using an unweighted MMRM analysis (essentially disregarding the interim analysis) was performed and the one-sided p-value was 0.018 using this approach. The post-hoc one-sided p-value was 0.017 using the unweighted ANCOVA analysis.
Response (≥50% improvement from baseline in the MADRS total score) and Remission (MADRS total score is ≤12) rates are presented in Table 35.
For the clinician-rated assessments, MADRS was administered at baseline and days 8, 15, 22 and 28. MADRS scores were obtained remotely by telephone by independent raters blinded to subject's treatment response. Similarly, the Clinical Global Impressions-Severity (CGI-S) scale was administered at baseline; days 4, 8, 11, 15, 18, 22, 25; and at the 4-week double-blind end point.
For the MADRS, PHQ-9, and SDS total scores, the test for treatment effect was based on mixed model for repeated measures (MMRM) on observed case data with change from baseline as the response variable and the fixed effect model terms for treatment (ESK+AD, AD+PBO), day, class of oral AD (SNRI or SSRI), and treatment-by-day, and baseline value as a covariate. […]
Efficacy was determined by measuring MADRS total scores, SDS scores, PHQ-9 scores and CGI-S scores. […]

The subject of a further series is subjects with TRD. The conditions noted are these: human, in vivo, other: intranasal. The procedure:
Transient blood pressure increases peaked for the esketamine group at approximately 40 minutes post dose and returned closer to predose levels by 1.5 hours post dose.

Another series has as its system adult subjects with TRD. The settings on record: human, in vivo, other: intranasal.

Description for adult subjects with TRD: The MOAA/S was used to measure treatment-emergent sedation, with correlation to levels of sedation defined by the American Society of Anesthesiologists (ASA) continuum. The MOAA/S scores range from 0=no response to painful stimulus (corresponds to ASA continuum for general anesthesia) to 5=readily responds to name spoken in normal tone (awake; corresponds to ASA continuum for minimal sedation).
On each intranasal dosing day, the MOAA/S was performed every 15 minutes from pre-dose to t=+1.5 hours post-dose. If the score was ≤3 at any time during the 1.5 hours post-dose interval, the MOAA/S was performed every 5 minutes until a score of 4 is reached (at which point a frequency of every 15 minutes can be resumed until t=+1.5 hours post dose). […] For subjects with a score of 4, the assessment was repeated every 15 minutes. […]
The Modified Observer's Assessment of Alertness/Sedation (MOAA/S) was used to measure treatment-emergent sedation with correlation to levels of sedation defined by the American Society of Anesthesiologists (ASA) continuum. The MOAA/S scores ranged from 0 (No response to painful stimulus; corresponds to ASA continuum for general anesthesia) to 5 (Readily responds to name spoken in normal tone [awake]; corresponding to ASA continuum for minimal sedation).

For `CN[C@]1(c2ccccc2Cl)CCCCC1=O` [esketamine, (S)-2-(2-chlorophenyl)-2-(methylamino)cyclohexanone], the “MADRS total score: difference in LS mean change (SE), MMRM” value in series [1] (Day 28, subjects aged 65-74) is −4.9 (2.04); in series [1] (Day 28, subjects aged 75 and above), −0.4 (5.02). Besides, the “MADRS total score: LS mean (SE) treatment difference” value in series [1] (Stage 1 (enrolled before interim analysis)) is −1.6 (2.62); in series [1] (Stage 2 (enrolled after interim analysis)) it was −5.6 (2.63). The “Blood pressure returned closer to predose levels by (post dose)” value with subjects with TRD was at most 1.5 h. Also, the “Transient blood pressure increases: time of peak post dose” value in the series with subjects with TRD is given as “approximately 40 minutes”. In addition, the “Sedation (MOAA/S) resolved by (postdose)” value with adult subjects with TRD was at most 1.5 h.
